Assay results published in publication PMC10698726 (Molecular Pharmaceutics, 2023).
Like-named read-outs stand apart in the source and are kept apart here.

What was measured:
OCT2 [1] = molecular target: T1, OCT2 (Homo sapiens, UniProt O15244); test: Concentration-dependent uptake of model substrates, OCT2-overexpressing HEK293 cells; type: in vitro ADME; design: expressed in transfected cells; host or cells: HEK293; conditions: this study; for Km: read-out: Km ± SEM; for Clint ± SEM: vmax over Km
T1 sequence (O15244 1-555): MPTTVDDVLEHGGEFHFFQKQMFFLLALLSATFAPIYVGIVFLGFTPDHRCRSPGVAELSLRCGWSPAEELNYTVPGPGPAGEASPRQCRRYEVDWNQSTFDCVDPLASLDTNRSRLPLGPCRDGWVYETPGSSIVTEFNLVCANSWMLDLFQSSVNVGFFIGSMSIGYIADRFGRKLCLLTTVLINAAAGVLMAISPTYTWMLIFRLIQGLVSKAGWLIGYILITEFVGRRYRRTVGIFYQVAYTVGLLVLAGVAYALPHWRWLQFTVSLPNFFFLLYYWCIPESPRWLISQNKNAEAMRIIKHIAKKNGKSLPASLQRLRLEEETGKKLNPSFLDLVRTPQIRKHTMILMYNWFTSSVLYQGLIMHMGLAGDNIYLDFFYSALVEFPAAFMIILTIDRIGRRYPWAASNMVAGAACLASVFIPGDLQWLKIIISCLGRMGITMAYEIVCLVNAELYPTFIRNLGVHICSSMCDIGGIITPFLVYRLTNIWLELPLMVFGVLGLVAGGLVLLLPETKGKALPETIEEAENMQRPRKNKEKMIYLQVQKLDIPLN
Description: (§1) Koepsell and Gorbulev (University of Würzburg, Germany).
(§2) Prior to inhibition studies, the used model substrates were validated in concentration-dependent uptake experiments if no literature data were available (Table S2 and Figures S2 and S3). Thereby, we ensured that the model substrate concentration used in the subsequent inhibition experiments was sufficiently below the Km value of its uptake kinetics. […] On the day of the experiment, the cells were washed once with prewarmed to 37 °C HBSS (Thermo Fisher Scientific, Darmstadt, Germany) supplemented with 10 mM HEPES and pH adjusted to 7.4 (Sigma-Aldrich)—hereafter termed HBSS+. For concentration-dependent experiments, the cells were incubated with increasing substrate concentrations for 2 min. Uptake was terminated by adding ice-cold HBSS+. Afterward, the cells were washed twice with ice-cold HBSS+, and cell lysis was done with 80% (v/v) acetonitrile (LGC Standards, Wesel, Germany) to which an internal standard for eventual LC–MS/MS analysis had been added. Intracellularly accumulated substrates were then quantified by LC–MS/MS analysis, and calibration was performed with known concentrations of the respective substances. All uptake data were normalized to the number of seeded cells by measuring the total protein content in radioimmunoprecipitation assay buffer-lysed cells in a bicinchoninic acid assay.[29]

OCT3 [2] = molecular target: T2, OCT3 (Homo sapiens, UniProt O75751); test: Concentration-dependent uptake of model substrates, OCT3-overexpressing HEK293 cells; type: in vitro ADME; conditions: this study
T2 construct: expressed in transfected cells; host or cells: HEK293
T2 sequence (O75751 1-556): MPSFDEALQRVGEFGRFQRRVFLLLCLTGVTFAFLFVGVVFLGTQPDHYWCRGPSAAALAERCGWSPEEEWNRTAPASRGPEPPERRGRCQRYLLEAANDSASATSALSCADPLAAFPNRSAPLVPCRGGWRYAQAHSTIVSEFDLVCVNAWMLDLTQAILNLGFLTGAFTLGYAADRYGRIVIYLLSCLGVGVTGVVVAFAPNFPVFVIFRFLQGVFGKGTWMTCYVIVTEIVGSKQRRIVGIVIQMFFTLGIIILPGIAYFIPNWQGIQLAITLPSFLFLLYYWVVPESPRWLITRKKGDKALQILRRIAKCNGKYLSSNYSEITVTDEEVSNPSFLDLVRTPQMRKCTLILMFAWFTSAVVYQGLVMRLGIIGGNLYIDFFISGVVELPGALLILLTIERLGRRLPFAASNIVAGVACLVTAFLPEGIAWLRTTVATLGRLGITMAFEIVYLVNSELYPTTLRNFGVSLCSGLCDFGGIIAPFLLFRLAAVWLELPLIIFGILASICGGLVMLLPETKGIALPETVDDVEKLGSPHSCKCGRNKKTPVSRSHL
Description: as §1, §2

OCT1 [3] = molecular target: T3, OCT1 (Homo sapiens, UniProt O15245); test: Concentration-dependent uptake of model substrates, OCT1-overexpressing HEK293 cells; type: in vitro ADME; design: expressed in transfected cells; host or cells: HEK293; conditions: this study
T3 sequence (O15245 1-554): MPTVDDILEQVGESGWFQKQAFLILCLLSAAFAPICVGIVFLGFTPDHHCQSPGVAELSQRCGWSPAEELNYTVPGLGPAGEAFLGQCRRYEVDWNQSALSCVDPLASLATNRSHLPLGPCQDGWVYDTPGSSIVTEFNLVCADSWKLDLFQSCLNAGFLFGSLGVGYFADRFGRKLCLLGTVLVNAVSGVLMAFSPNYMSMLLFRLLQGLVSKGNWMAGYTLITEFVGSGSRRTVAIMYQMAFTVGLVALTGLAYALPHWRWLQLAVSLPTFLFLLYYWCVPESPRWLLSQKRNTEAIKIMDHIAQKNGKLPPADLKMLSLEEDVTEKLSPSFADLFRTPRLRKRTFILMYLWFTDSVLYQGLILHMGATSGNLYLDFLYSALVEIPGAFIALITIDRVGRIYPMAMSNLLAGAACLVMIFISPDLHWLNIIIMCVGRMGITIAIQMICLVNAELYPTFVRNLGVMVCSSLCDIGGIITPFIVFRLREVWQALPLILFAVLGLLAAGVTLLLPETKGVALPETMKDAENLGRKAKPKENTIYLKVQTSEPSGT
Description: as §1, §2

OCT3 [4] = molecular target: T2, OCT3; design: method as in earlier work; conditions: ref 3 (Gebauer et al., 2022, supplement), cited from earlier work; for Km: read-out: Km ± SEM
OCT1 [5] = molecular target: T3, OCT1; test: Inhibition of model substrate uptake in OCT1-overexpressing HEK293 cells; type: cell-based; design: expressed in transfected cells; host or cells: HEK293; conditions: for inhibition at 5 min, 20 μM: human, OCT1-overexpressing HEK293 cells
Description: as §1
Fluorescence quantification was performed in technical duplicates.

OCT3 [6] = molecular target: T2, OCT3; test: Inhibition of model substrate uptake in OCT3-overexpressing HEK293 cells; type: cell-based; conditions: 20 μM inhibitor, 5 min
Procedure, shortened: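 IC50 values were fitted with a Hill equation from net uptake, calculated as uptake in overexpressing HEK293 cells minus empty-vector control uptake. Cells were exposed for 5 min to 2 μM model substrate alone, with 20 μM inhibitor, or with a concentration series. Uptake was quantified by ASP^+ fluorescence or LC–MS/MS after lysis in 80% acetonitrile.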

OCT2 [7] = molecular target: T1, OCT2; test: Inhibition of model substrate uptake in OCT2-overexpressing HEK293 cells; conditions: for inhibition at 5 min, 20 μM: human, OCT2-overexpressing HEK293 cells
not read = substrate: CCC(CO)NCCNC(CC)CO; test: not read
[8] = pH 7.4, probe ASP+ (2 μM), OCT1, 20 μM inhibitor, 2 μM ASP+, 5 min, mean of three experiments, read-out: ASP+ inhibition [%]
[9] = pH 7.4, probe sumatriptan (2 μM), OCT1, 20 μM inhibitor, 2 μM sumatriptan, 5 min, read-out: Sumatriptan inhibition [%]
[10] = pH 7.4, probe ASP+ (2 μM), ASP+ inhibition [%], OCT2, 20 μM inhibitor, 2 μM ASP+, 5 min
[11] = pH 7.4, probe N-ethyllidocaine (2 μM), N-Ethyllidocaine inhibition [%], OCT2, 20 μM inhibitor, 2 μM N-ethyllidocaine, 5 min

In the case of `CN(C)c1ccc(C=Cc2cc[n+](C)cc2)cc1` [ASP+, 4-(4-(dimethylamino)styryl)-N-methylpyridinium], the “vmax ± SEM [pmol × mg Protein−1 × min−1]” value (OCT2 [1]) is reported as 1812 pmol × mg Protein−1 × min−1, the Km (OCT2 [1]) is reported as 29.6 µM and the “Clint ± SEM” value (OCT2 [1]) is reported as 61.3. The “vmax ± SEM [pmol × mg Protein−1 × min−1]” value (OCT3 [2]) was 3381 pmol × mg Protein−1 × min−1, the Km (OCT3 [2]; read-out: Km ± SEM) was 16.5 µM and the “Clint ± SEM” value (OCT3 [2]; vmax over Km) was 205. For the same molecule, the Km (OCT1 [3]; 2 min uptake, read-out: Km ± SEM) was 11.7 µM, the “vmax ± SEM [pmol × mg Protein−1 × min−1]” value (OCT1 [3]) was 2678 pmol × mg Protein−1 × min−1 and the “Clint ± SEM” value (OCT1 [3]; vmax over Km) was 230.

In the case of `CC[N+](CC)(CC)CC(=O)Nc1c(C)cccc1C` [N-Ethyllidocaine], the Km (OCT3 [4]) is listed as 46.3 µM, the “Clint ± SEM” value (OCT3 [4]) is listed as 8.80 and the “vmax ± SEM [pmol × mg Protein−1 × min−1]” value (OCT3 [4]) is listed as 407 pmol × mg Protein−1 × min−1. The “vmax ± SEM [pmol × mg Protein−1 × min−1]” value (OCT2 [1]) was 5172 pmol × mg Protein−1 × min−1, the Km (OCT2 [1]) was 87.7 µM and the “Clint ± SEM” value (OCT2 [1]) was 58.9.

In the case of `NC(N)=Nc1nc(CSCCC(N)=NS(N)(=O)=O)cs1` [Famotidine], the Km (OCT3 [4]) is given as 8.91 µM, the “Clint ± SEM” value (OCT3 [4]) is given as 27.2 and the “vmax ± SEM [pmol × mg Protein−1 × min−1]” value (OCT3 [4]) is given as 242 pmol × mg Protein−1 × min−1.

With `CCCCN1CCCC[C@@H]1C(=O)Nc1c(C)cccc1C` [(R)-Bupivacaine] the IC50 (OCT1 [5]; OCT1, Table 1, read-out: IC50) was 10.2 µM, the inhibition at 5 min, 20 μM (OCT1 [5]; pH 7.4, probe (S,S)-ethambutol (2 μM), (S,S)-Ethambutol inhibition [%], OCT1, 20 μM inhibitor, 2 μM (S,S)-ethambutol, 5 min) was 63.8% and the inhibition at 5 min, 20 μM (OCT1 [5]; [8]) was 32.8%. The inhibition at 5 min, 20 μM (OCT1 [5]; [9]) was 59.2%, the inhibition at 20 µM (OCT3 [6]; HEK293, 5 min, read-out: (S)-Zolmitriptan inhibition [%], OCT3, 2 μM (S)-zolmitriptan) was 51.8% and the inhibition at 20 µM (OCT3 [6]; HEK293, 5 min, read-out: (S,S)-Ethambutol inhibition [%], OCT3, 2 μM (S,S)-ethambutol) was 50.3%. For the same molecule, the inhibition at 20 µM (OCT3 [6]; HEK293, OCT3, 2 μM ASP+, read-out: ASP+ inhibition [%]) was 31.4%, the IC50 (OCT2 [7]; IC50 [μM], OCT2, Table 1) was 21.4 µM and the inhibition at 5 min, 20 μM (OCT2 [7]; pH 7.4, probe (S,S)-ethambutol (2 μM), (S,S)-Ethambutol inhibition [%], OCT2, 20 μM inhibitor, 2 μM (S,S)-ethambutol, 5 min) was 56.3%. The inhibition at 5 min, 20 μM (OCT2 [7]; [10]) was 59.5% and the inhibition at 5 min, 20 μM (OCT2 [7]; [11]) was 64.4%.

For `CCC(CO)NCCNC(CC)CO` [(R,R)-Ethambutol], the inhibition at 5 min, 20 μM (OCT1 [5]; [8]) was 7.7%, the inhibition at 5 min, 20 μM (OCT1 [5]; [9]) was 17.9% and the “(S)-Zolmitriptan inhibition [%]” value (OCT3 [6]; OCT3, 2 μM (S)-zolmitriptan) was -3.7%. The “ASP+ inhibition [%]” value (OCT3 [6]; OCT3, 2 μM ASP+) was 9.1%, the inhibition at 5 min, 20 μM (OCT2 [7]; [10]) was 34.4% and the inhibition at 5 min, 20 μM (OCT2 [7]; [11]) was 7.7%.

In the case of `NC[C@H](O)c1ccc(O)c(O)c1` [(R)-Norepinephrine], the “(S,S)-Ethambutol inhibition [%]” value (OCT1 [5]; OCT1, 20 μM inhibitor, 2 μM (S,S)-ethambutol, 5 min) is reported as -19.9%, the “ASP+ inhibition [%]” value (OCT1 [5]; OCT1, 20 μM inhibitor, 2 μM ASP+, 5 min, mean of three experiments) is reported as -4.8% and the “Sumatriptan inhibition [%]” value (OCT1 [5]; OCT1, 20 μM inhibitor, 2 μM sumatriptan, 5 min) is reported as -1.3%. For the same molecule, the “(S)-Zolmitriptan inhibition [%]” value (OCT3 [6]; OCT3, 2 μM (S)-zolmitriptan) was -4.3%, the “(S,S)-Ethambutol inhibition [%]” value (OCT3 [6]; OCT3, 2 μM (S,S)-ethambutol) was 5.7% and the “ASP+ inhibition [%]” value (OCT3 [6]; OCT3, 2 μM ASP+) was 8.4%. The “(S,S)-Ethambutol inhibition [%]” value (OCT2 [7]; OCT2, 20 μM inhibitor, 2 μM (S,S)-ethambutol, 5 min) was -1.8%, the inhibition at 5 min, 20 μM (OCT2 [7]; [10]) was 23.1% and the inhibition at 5 min, 20 μM (OCT2 [7]; [11]) was 5.4%.

B1: OCT2 (Homo sapiens) (protein)
chain: T1 sequence (O15244 1-555)
With B1 the Km (not read; other: OCT2, this study) was 163 µM and the Vmax (not read; other: OCT2, this study) was 0.00597 µmol/min/mg.

B2: OCT3 (Homo sapiens) (protein)
chain: T2 sequence (O75751 1-556)
With B2 the Km (not read; other: OCT3, this study) was 146 µM and the Vmax (not read; other: OCT3, this study) was 0.00246 µmol/min/mg.
